Measurements taken from ChEMBL document CHEMBL4373723 (J Med Chem, 2019).
Calls of active or inactive are those of the source. The calls are words filed in the database; no cut-off is given here. Bridge positions count the residues as written; N and C are the ends. Peptide text beside a SMILES is read from it. I, II: the chains in the order shown.

Assays:
Frizzled-7 [1] = target: T1, Frizzled-7 (Homo sapiens, UniProt O75084); experiment: Binding affinity to recombinant human Frizzled-7 (Gln33 to Leu185 residues)/human IgG1 chimeric protein expressed in CHO cells assessed as association rate constant by SPR assay; format: cell-based
Frizzled-7 [2] = target: T1, Frizzled-7; format: cell-based; conditions: cho
Frizzled-7 [3] = target: T1, Frizzled-7; experiment: biochemical; format: cell-based, CHO; conditions: read-out: Kd
[4] = Stability in presence of TCEP assessed as disulfide reduction at 20 uM measured over 40 mins at 37 degC by LC-MS analysis; format: physicochemical
[5] = mouse, serum, 24 h, 200 µM
[6] = 40 min, 20 µM
Frizzled-1 = Frizzled-1 (Homo sapiens, UniProt Q9UP38); experiment: Binding affinity to recombinant human Frizzled-1 (Gln73 to His253 residues)/human IgG1 chimeric protein expressed in mouse NS0 cells by SPR assay
[7] = Binding affinity to recombinant human/mouse Frizzled-2 (Gln29 to Leu168 residues)/human IgG1 chimeric protein expressed in mouse NS0 cells by SPR assay
Frizzled-5 = Frizzled-5 (Homo sapiens, UniProt Q13467); experiment: Binding affinity to recombinant human Frizzled-5 (Ala27 to Pro167 residues)/human IgG1 chimeric protein expressed in mouse NS0 cells by SPR assay
Frizzled-8 = Frizzled-8 (Homo sapiens, UniProt Q9H461); experiment: Binding affinity to recombinant human Frizzled-8 (Ala25 to Pro172 residues)/human IgG1 chimeric protein expressed in CHO cells […] by SPR assay
Frizzled-4 = target: T2, Frizzled-4 (Homo sapiens, UniProt Q9ULV1); experiment: Binding affinity to recombinant human Frizzled-4 (Phe37 to Glu180 residues)/human IgG1 chimeric protein expressed in mouse NS0 cells by SPR assay
T2 sequence (Q9ULV1 whole entry): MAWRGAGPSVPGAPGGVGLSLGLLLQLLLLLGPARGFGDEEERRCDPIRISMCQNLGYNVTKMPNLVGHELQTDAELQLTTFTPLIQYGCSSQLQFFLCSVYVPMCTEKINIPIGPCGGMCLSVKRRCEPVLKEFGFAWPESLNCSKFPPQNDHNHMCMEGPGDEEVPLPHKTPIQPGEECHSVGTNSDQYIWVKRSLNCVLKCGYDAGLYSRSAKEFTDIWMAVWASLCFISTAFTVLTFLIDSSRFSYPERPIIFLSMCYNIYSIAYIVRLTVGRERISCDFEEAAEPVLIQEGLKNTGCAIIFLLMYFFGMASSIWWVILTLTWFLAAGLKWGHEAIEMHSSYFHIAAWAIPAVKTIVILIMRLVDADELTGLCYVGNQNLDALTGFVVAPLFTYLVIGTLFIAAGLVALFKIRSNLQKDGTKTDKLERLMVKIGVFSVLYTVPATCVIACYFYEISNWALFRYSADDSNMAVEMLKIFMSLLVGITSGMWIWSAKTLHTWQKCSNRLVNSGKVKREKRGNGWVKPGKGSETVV

Frizzled-9 = target: T3, Frizzled-9 (Homo sapiens, UniProt O00144); experiment: Binding affinity to Frizzled-9 CRD (unknown origin)
T3 sequence (O00144 whole entry): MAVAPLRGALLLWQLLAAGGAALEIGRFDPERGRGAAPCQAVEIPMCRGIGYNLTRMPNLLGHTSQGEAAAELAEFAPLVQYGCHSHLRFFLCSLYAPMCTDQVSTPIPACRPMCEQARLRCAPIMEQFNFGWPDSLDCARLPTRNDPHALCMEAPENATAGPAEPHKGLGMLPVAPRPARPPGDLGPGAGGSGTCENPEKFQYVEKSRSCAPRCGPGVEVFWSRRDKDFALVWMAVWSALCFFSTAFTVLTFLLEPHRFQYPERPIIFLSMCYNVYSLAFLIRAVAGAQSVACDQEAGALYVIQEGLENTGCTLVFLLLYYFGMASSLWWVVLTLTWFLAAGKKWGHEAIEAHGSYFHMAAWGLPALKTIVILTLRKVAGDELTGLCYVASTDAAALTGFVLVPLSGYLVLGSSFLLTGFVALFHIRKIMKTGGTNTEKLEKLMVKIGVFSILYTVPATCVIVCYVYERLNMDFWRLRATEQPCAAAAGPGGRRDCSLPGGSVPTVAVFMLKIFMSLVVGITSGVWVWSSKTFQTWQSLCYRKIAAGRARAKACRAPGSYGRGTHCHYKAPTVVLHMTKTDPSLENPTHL

Frizzled-10 = target: T4, Frizzled-10 (Homo sapiens, UniProt Q9ULW2); experiment: Binding affinity to Frizzled-10 CRD (unknown origin)
T4 sequence (Q9ULW2 whole entry): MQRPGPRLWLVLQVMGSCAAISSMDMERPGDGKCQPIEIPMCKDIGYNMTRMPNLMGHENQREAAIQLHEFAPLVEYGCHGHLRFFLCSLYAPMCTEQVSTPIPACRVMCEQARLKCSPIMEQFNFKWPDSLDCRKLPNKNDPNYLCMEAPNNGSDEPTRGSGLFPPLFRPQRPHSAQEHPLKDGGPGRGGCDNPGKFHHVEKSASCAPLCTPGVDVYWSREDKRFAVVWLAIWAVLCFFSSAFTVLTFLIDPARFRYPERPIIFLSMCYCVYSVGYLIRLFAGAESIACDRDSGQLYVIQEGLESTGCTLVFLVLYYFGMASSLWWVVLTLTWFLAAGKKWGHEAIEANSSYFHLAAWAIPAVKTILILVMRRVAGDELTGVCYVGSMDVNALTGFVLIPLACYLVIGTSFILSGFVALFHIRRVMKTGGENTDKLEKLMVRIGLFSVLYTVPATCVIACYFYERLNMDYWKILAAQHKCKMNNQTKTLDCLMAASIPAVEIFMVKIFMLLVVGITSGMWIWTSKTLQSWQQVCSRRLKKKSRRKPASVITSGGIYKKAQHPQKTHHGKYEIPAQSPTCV

Frizzled-7 [8] = target: T1, Frizzled-7; experiment: Inhibition of Frizzled-7 in HEK293 cells expressing Wnt assessed as reduction in Wnt signaling by firefly luciferase reporter gene assay; format: cell-based
Frizzled-7 [9] = target: T1, Frizzled-7; experiment: Binding affinity to recombinant human Frizzled-7 (Gln33 to Leu185 residues)/human IgG1 chimeric protein expressed in CHO cells assessed as reduction in interaction of TcdB with FZD7 incubated for 1 hr by competition ELISA; format: cell-based
[10] = Binding affinity to recombinant human/mouse Frizzled-2 (Gln29 to Leu168 residues)/human IgG1 chimeric protein expressed in mouse NS0 cells assessed as reduction in interaction of TcdB with FZD7 incubated for 1 hr by competition ELISA; format: cell-based
Frizzled-7 [11] = target: T1, Frizzled-7; experiment: Binding affinity to recombinant human Frizzled-7 (Gln33 to Leu185 residues)/human IgG1 chimeric protein expressed in CHO cells assessed as reduction in interaction of TcdB with FZD7 by SPR
Homo sapiens = species on record: Homo sapiens; experiment: Binding affinity to recombinant human/mouse Frizzled-2 (Gln29 to Leu168 residues)/human IgG1 chimeric protein expressed in mouse NS0 cells assessed as reduction in interaction of TcdB with FZD7 by SPR
Frizzled-7 [12] = target: T1, Frizzled-7; conditions: CHO
[13] = 40 min, 20 µM; remark: listed apart in the source

Frizzled-5, sequence (Q13467 whole entry): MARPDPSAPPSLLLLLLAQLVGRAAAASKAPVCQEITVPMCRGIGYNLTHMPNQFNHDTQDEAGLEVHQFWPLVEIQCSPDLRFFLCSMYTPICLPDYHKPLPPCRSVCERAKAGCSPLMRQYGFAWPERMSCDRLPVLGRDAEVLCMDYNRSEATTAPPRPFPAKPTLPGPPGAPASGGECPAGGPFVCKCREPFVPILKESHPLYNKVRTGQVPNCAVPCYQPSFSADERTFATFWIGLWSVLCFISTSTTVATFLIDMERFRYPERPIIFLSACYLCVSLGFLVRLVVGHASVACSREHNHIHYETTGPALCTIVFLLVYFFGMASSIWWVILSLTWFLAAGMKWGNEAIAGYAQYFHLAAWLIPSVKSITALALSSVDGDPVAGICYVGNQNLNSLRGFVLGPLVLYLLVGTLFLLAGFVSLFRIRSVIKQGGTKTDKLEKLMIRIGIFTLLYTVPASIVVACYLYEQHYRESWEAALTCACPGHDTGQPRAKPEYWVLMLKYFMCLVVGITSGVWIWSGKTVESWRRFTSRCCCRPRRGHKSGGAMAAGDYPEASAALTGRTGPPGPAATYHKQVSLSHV
Frizzled-1, sequence (Q9UP38 whole entry): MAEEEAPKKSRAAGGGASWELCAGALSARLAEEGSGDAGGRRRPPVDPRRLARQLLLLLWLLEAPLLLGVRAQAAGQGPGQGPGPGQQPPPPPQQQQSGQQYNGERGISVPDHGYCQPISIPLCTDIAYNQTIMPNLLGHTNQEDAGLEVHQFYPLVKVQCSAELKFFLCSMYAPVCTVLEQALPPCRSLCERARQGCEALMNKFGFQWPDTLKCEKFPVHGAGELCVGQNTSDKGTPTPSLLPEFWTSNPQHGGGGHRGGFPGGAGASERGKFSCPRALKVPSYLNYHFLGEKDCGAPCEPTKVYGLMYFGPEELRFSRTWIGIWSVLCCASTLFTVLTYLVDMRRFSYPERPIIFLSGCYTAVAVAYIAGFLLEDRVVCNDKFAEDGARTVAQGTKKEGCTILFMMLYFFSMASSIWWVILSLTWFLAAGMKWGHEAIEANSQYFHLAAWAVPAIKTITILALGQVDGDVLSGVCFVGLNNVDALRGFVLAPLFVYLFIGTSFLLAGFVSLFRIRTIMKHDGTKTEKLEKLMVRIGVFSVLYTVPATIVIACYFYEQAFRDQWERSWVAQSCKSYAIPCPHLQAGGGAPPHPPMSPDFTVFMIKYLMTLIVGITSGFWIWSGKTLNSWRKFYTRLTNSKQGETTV
Frizzled-8, sequence (Q9H461 whole entry): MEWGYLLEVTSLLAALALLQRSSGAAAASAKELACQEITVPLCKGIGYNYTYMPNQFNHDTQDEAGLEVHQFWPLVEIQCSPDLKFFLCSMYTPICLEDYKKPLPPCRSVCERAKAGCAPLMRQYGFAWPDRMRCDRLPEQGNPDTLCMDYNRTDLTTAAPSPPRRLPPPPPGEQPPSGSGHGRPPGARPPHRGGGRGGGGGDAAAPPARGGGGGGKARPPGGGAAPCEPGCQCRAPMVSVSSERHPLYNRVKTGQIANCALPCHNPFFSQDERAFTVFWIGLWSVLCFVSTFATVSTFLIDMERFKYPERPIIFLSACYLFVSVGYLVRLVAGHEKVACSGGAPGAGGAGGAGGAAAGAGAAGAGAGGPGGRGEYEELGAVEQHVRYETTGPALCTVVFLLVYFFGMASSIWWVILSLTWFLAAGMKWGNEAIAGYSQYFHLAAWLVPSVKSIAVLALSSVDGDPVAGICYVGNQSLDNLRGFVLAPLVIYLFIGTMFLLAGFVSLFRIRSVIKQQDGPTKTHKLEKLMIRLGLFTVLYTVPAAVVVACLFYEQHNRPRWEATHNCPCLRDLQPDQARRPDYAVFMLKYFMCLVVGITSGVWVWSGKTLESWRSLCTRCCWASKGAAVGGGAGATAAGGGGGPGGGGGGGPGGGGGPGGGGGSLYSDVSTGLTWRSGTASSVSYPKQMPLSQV

SMILES: CC[C@H](C)[C@H](NC(=O)[C@H](Cc1cnc[nH]1)NC(=O)[C@H](CSSCC[C@H](NC(=O)[C@H](Cc1c[nH]c2ccccc12)NC(=O)[C@H](CC(C)C)NC(=O)[C@H](CCC(=O)O)NC(=O)[C@H](CC(C)C)NC(=O)[C@H](CC(=O)O)NC(=O)[C@H](CC(=O)O)NC(=O)[C@@H](NC(C)=O)[C@@H](C)O)C(=O)N[C@@H](Cc1cnc[nH]1)C(=O)N[C@H](C(=O)N[C@@H](CCSC)C(=O)N[C@@H](Cc1ccc(O)cc1)C(N)=O)[C@@H](C)CC)NC(=O)[C@H](Cc1c[nH]c2ccccc12)NC(=O)[C@H](CC(C)C)NC(=O)[C@H](CCC(=O)O)NC(=O)[C@H](CC(C)C)NC(=O)[C@H](CC(=O)O)NC(=O)[C@H](CC(=O)O)NC(=O)[C@@H](NC(C)=O)[C@H](C)O)C(=O)N[C@@H](CCSC)C(=O)N[C@@H](Cc1ccc(O)cc1)C(N)=O
- association rate constant (ka) (Frizzled-7 [1]): 1.7 ×10⁷ /M/s
- Kd (Frizzled-7 [2]): 6.3 ×10⁻³ /s
- Kd (Frizzled-7 [3]): 0.37 nM
- Stability [4]: Stable
- Stability [5]: Stable
- Stability [6]: Stable

SMILES: CC[C@H](C)[C@H](NC(=O)[C@H](Cc1cnc[nH]1)NC(=O)[C@H](CSSC[C@H](NC(=O)[C@H](Cc1c[nH]c2ccccc12)NC(=O)[C@H](Cc1cccc(Cl)c1)NC(=O)[C@H](CCC(=O)O)NC(=O)[C@H](CC(C)C)NC(=O)[C@H](CC(=O)O)NC(=O)[C@H](CC(=O)O)NC(=O)[C@@H](NC(C)=O)[C@H](C)O)C(=O)N[C@@H](Cc1cnc[nH]1)C(=O)N[C@H](C(=O)N[C@@H](CCSC)C(=O)N[C@@H](Cc1ccc(O)cc1)C(N)=O)[C@@H](C)CC)NC(=O)[C@H](Cc1c[nH]c2ccccc12)NC(=O)[C@H](CC(C)C)NC(=O)[C@H](CCC(=O)O)NC(=O)[C@H](Cc1cccc(Cl)c1)NC(=O)[C@H](CC(=O)O)NC(=O)[C@H](CC(=O)O)NC(=O)[C@@H](NC(C)=O)[C@H](C)O)C(=O)N[C@@H](CCSC)C(=O)N[C@@H](Cc1ccc(O)cc1)C(N)=O
- Kd (Frizzled-7 [2]): 0.54 ×10⁻³ /s
- Kd (Frizzled-7 [3]): 0.039 nM
- Kd (Frizzled-1): 0.34 nM
- Kd [7]: 0.32 nM
- Kd (Frizzled-5): Not Active
- Kd (Frizzled-8): Not Active
- Kd (Frizzled-4): Not Active
- Kd (Frizzled-9): Not Active
- Kd (Frizzled-10): Not Active
- IC50 (Frizzled-7 [8]): 53 nM
- inhibition (Frizzled-7 [9]): Dose-dependent effect
- inhibition [10]: Dose-dependent effect
- inhibition (Frizzled-7 [11]): Active
- inhibition (Homo sapiens): Active
- Ka (Frizzled-7 [12]): 139 ×10⁵ /M/s

SMILES: CSCC[C@H](NC(=O)[C@@H](NC(=O)[C@H](Cc1cnc[nH]1)NC(=O)[C@H](CSSC[C@H](NC(=O)[C@H](Cc1c[nH]c2ccccc12)NC(=O)[C@H](Cc1ccccc1)NC(=O)[C@H](CCC(=O)O)NC(=O)[C@H](CC(C)C)NC(=O)[C@H](CC(=O)O)NC(=O)[C@H](CC(=O)O)NC(=O)[C@H](CO)NC(=O)[C@@H]1CCCN1C(=O)[C@H](CC(C)C)NC(C)=O)C(=O)N[C@@H](Cc1cnc[nH]1)C(=O)N[C@H](C(=O)N[C@@H](CCSC)C(=O)N[C@@H](Cc1ccc(O)cc1)C(N)=O)C(C)C)NC(=O)[C@H](Cc1c[nH]c2ccccc12)NC(=O)[C@H](Cc1ccccc1)NC(=O)[C@H](CCC(=O)O)NC(=O)[C@H](CC(C)C)NC(=O)[C@H](CC(=O)O)NC(=O)[C@H](CC(=O)O)NC(=O)[C@H](CO)NC(=O)[C@@H]1CCCN1C(=O)[C@H](CC(C)C)NC(C)=O)C(C)C)C(=O)N[C@@H](Cc1ccc(O)cc1)C(N)=O (I: Ac-LPSDDLEFWCHVMY-NH2 / II: Ac-LPSDDLEFWCHVMY-NH2; disulfide I:10-II:10)
- Kd (Frizzled-7 [2]): 5.6 ×10⁻³ /s
- Kd (Frizzled-7 [3]): 1.18 nM
- Kd (Frizzled-1): 2.42 nM
- Kd [7]: 1.46 nM
- Kd (Frizzled-5): Not Active
- Kd (Frizzled-8): Not Active
- Kd (Frizzled-4): Not Active
- Kd (Frizzled-9): Not Active
- Kd (Frizzled-10): Not Active
- IC50 (Frizzled-7 [8]): 32 nM
- inhibition (Frizzled-7 [9]): Dose-dependent effect
- inhibition [10]: Dose-dependent effect
- Ka (Frizzled-7 [12]): 47.5 ×10⁵ /M/s

SMILES: CSCC[C@H](NC(=O)[C@@H](NC(=O)[C@H](Cc1cnc[nH]1)NC(=O)[C@H](CSSC[C@H](NC(=O)[C@H](Cc1c[nH]c2ccccc12)NC(=O)[C@H](Cc1ccccc1)NC(=O)[C@H](CCC(=O)O)NC(=O)[C@H](CC(C)C)NC(=O)[C@H](CC(=O)O)NC(=O)[C@H](CC(=O)O)NC(=O)[C@H](CO)NC(C)=O)C(=O)N[C@@H](Cc1cnc[nH]1)C(=O)N[C@H](C(=O)N[C@@H](CCSC)C(=O)N[C@@H](Cc1ccc(O)cc1)C(N)=O)C(C)C)NC(=O)[C@H](Cc1c[nH]c2ccccc12)NC(=O)[C@H](Cc1ccccc1)NC(=O)[C@H](CCC(=O)O)NC(=O)[C@H](CC(C)C)NC(=O)[C@H](CC(=O)O)NC(=O)[C@H](CC(=O)O)NC(=O)[C@H](CO)NC(C)=O)C(C)C)C(=O)N[C@@H](Cc1ccc(O)cc1)C(N)=O (I: Ac-SDDLEFWCHVMY-NH2 / II: Ac-SDDLEFWCHVMY-NH2; disulfide I:8-II:8)
- Kd (Frizzled-7 [2]): 2.3 ×10⁻³ /s
- Kd (Frizzled-7 [3]): 0.37 nM
- Kd (Frizzled-1): 1.12 nM
- Kd [7]: 0.99 nM
- Kd (Frizzled-5): Not Active
- Kd (Frizzled-8): Not Active
- Kd (Frizzled-4): Not Active
- Kd (Frizzled-9): Not Active
- Kd (Frizzled-10): Not Active
- Stability [4]: Unstable
- inhibition (Frizzled-7 [9]): Dose-dependent effect
- inhibition [10]: Dose-dependent effect
- Ka (Frizzled-7 [12]): 61.9 ×10⁵ /M/s
- Stability [5]: Stable
- Stability [6]: Unstable
- Stability [13]: Unstable
